Assay results taken from PMC6804243, “Small-Molecule Inhibition of UBE2T/FANCL-Mediated Ubiquitylation in the Fanconi Anemia Pathway” (ACS Chemical Biology, 2019).

Experiments:
[1] = system: pS345 CHK1, γH2AX, pS824 KAP1, PARP1; test: Immunoblot of DNA damage biomarkers (pS345 CHK1, γH2AX, pS824 KAP1, PARP1 cleavage) in U2OS cells; format: cell-based; details: 8 h, CU1 200 μM or CU2 500 μM; for levels of pS824 KAP1 / levels of pS345 CHK1: HU 2.5 mM; for levels of pS345 CHK1: relative to DMSO control; for levels of γH2AX (immunoblot): in combination with HU 2.5 mM, relative to HU plus DMSO
Procedure: As DNA damage induced by HU is cell-cycle-dependent, it was necessary to establish whether CU1 and CU2 might simply prevent cells from entering the S-phase, which would also manifest itself as a reduction in mUb-FANCD2. This was determined by analysis of several biomarkers linked to DNA damage in cycling cells. Activated CHK1 (pS345 CHK1) phosphorylates CDC25A, inducing the transient arrest of cells in the S-phase, or in G2 before the onset of mitosis.[18] […] These observations were also confirmed by cell cycle analysis.
Following the generation of DNA DSBs, ATM, ATR, and/or DNA-PKcs mediated phosphorylation of histone H2AX generates the phosphorylated species, γH2AX.[19] […] Following HU treatment, DSBs are formed if stalled replication forks are not stabilized and subsequently collapse. Therefore, we concluded that CU1 and CU2 appeared to act by impairing the ability of cells to stabilize and repair stalled replication forks. This is consistent with CU1 and CU2 inhibiting the formation of mUb-FANCD2, which would otherwise play a role in stabilizing stalled replication forks, thus preventing their collapse and the formation of DSBs.
In response to DSB formation, the transcriptional repressor and RING finger protein, KAP1, is released from chromatin, following its ATM-mediated phosphorylation on Ser824.[20] […] An increase in the number of DSBs could also have been caused by apoptosis. In cells undergoing apoptosis, PARP1 is cleaved from a full-length 116 kDa protein into 89 and 24 kDa polypeptides by caspase-3.[21]
Reaction mixtures were incubated for the indicated time at 37 °C and stopped by the addition of 2X reducing SDS -PAGE sample buffer, separated on NuPAGE Novex 4 –12% Bis/Tris gradient gels (Invitrogen) and visualized by Western blotting using the indicated antibodies (Table S3).
Cell culture. U2OS cells were cultured at 37 °C in a humidified atmosphere and 5% (v/v) CO2 in Dulbecco's Modified Eagle Medium (DMEM; Sigma-Aldrich) supplemented with 10% (v/v) fetal bovine serum (FBS), 100 units/ml of penicillin, […] of streptomycin and 292 μg/mL L-glutamine.
Cell extract preparation and immunoblotting. U2OS cells were lysed in buffer containing 50 mM Tris-HCl pH 7.5, 2% SDS, 10 mM NEM, cocktail protease inhibitor (Roche) and phosphatase inhibitor cocktail followed by sonication 100 µg of extracts were boiled for 5 mins at 95 °C in 5X loading buffer and loaded onto NuPAGE Novex 4–12% Bis/Tris gradient gels
(Invitrogen), or NuPAGE Novex 3-8% Tris/Acetate gradient gels (Invitrogen) for detection of mUb-FANCD2. After separation the gels were transferred to PVDF and the membranes were blocked with Tris-buffered saline containing 0.1% (v/v) Tween-20 (TBST) and 5% (v/v) bovine serum albumin (BSA) and incubated with the indicated primary and secondary antibodies. mUb-FANCD2 intensity was quantified using Image Studio (LI-COR).
IncuCyte cell proliferation assays. 2000 U2OS cells were seeded per well in 96-well plates and treated with compounds 24 hours afterwards. After 1 hour of compound treatment, 15 µM carboplatin (Sigma-Aldrich) was added and the cells were cultured in an incubator with an IncuCyte microscopy -platform (Essen BioScience). Phase -contrast images were acquired every 6 hours for 8 days until DMSO-carboplatin treated cells reached >80% confluence. Cell proliferation was monitored as the occupied area (% confluence) of cell images over time and calculated as percentage confluence over time. Cell confluency percentages were calculated using the integrated Cell Player software and results were analysed with Prism 6 (GraphPad Software).

[2] = system: mUb-H2A and total protein ubiquitylation; test: Immunoblot of widespread cellular ubiquitylation (mUb-H2A, FK2 antibody); format: cell-based; details: U2OS; CU1 200 μM or CU2 500 μM; with or without HU 2.5 mM, 8 h
Procedure: Figure 3 Cell-based assays with CU1 and CU2: (a) Western blot showing that the formation of mUb-FANCD2(*), in response to HU treatment (2.5 mM, 8 h), is impaired in U2OS cells in the presence of CU1 (200 μM) or CU2 (500 μM). Ratio = mUb-FANCD2/FANCD2 (normalized to DMSO control). mUb-FANCD2 was resolved on a separate gel. PARP1 was used as a loading control for each gel, as well as to assess apoptosis. (b) Quantification of the reduction in mUb-FANCD2, in response to HU treatment (2.5 mM, 8 h) in the presence of CU1 (200 μM) or CU2 (500 μM). Mean calculated from three independent experiments. […] TEXT PRINTED IN THE PICTURE: (d) DMSO: S-phase 42.7; G1 29.2; G2-M 27.8 | (d) HU: S-phase 0.24; G1 72.4; G2-M 22.9 | (d) CU1: S-phase 43.4; G1 26.8; G2-M 29.1 | (d) CU2: S-phase 39.7; G1 31.9; G2-M 28.2 DOUBTS OF THE COPYIST ABOUT THIS PICTURE: Panel d print is small, so these digits are best readings: DMSO G2-M 27.8 (8 or 6); CU1 G1 26.8 (6 or 8); CU2 S-phase 39.7 (9 or 8); CU2 G2-M 28.2 (8 or 6) / Panels a and c: the lane ratios printed under the western blots (a: 1.0, 0.64, 0.40; c: 1.0/0.65, 1.0/0.63, 1.0/0.53) were left out because they belong to blots and the picture prints no measure for them […]
To investigate if the compounds were affecting more widespread ubiquitylation events in the cell, the monoubiquitylation status of histone H2A was assessed (mUb-H2A; Figure 3a). […]

SMILES | levels of pS824 KAP1 [1] | levels of pS345 CHK1 [1] | levels of γH2AX (immunoblot) [1] | total protein ubiquitylation (FK2 antibody) [2]
NCCN1C(=O)CC[C@H]2CN(Cc3cccc(-c4ccco4)c3)CC[C@H]21 [CU1] | increased levels of pS824 KAP1 | Comparable levels of pS345 CHK1 | somewhat increased the levels of γH2AX | do not affect total protein ubiquitylation
CCN1CCN(c2cc(C)nc3nc(CN4CCCCC4C)nn23)CC1 (centres unmarked) [CU2] | increased levels of pS824 KAP1 | Comparable levels of pS345 CHK1 | somewhat increased the levels of γH2AX | do not affect total protein ubiquitylation
